Patent US8158789B2, “Arginine derivatives with NP-I antagonistic activity” (Ark Therapeutics Group Ltd., priority 2006, dated 2012)
pIC50: −log10 of the molar value.

Experiments:
neuropilin-1 (NP-1) = molecular target: T1, neuropilin-1 (NP-1) (Homo sapiens, UniProt O14786); test: 125I-VEGF-A165 binding; settings: assay not given; 125I-VEGF-A165 binding is the only concentration-response binding method described
T1 construct: expressed in transfected cells; host or cells: porcine aortic endothelial cells (PAE/NP-1), hygromycin B selection
T1 sequence (O14786 22-923): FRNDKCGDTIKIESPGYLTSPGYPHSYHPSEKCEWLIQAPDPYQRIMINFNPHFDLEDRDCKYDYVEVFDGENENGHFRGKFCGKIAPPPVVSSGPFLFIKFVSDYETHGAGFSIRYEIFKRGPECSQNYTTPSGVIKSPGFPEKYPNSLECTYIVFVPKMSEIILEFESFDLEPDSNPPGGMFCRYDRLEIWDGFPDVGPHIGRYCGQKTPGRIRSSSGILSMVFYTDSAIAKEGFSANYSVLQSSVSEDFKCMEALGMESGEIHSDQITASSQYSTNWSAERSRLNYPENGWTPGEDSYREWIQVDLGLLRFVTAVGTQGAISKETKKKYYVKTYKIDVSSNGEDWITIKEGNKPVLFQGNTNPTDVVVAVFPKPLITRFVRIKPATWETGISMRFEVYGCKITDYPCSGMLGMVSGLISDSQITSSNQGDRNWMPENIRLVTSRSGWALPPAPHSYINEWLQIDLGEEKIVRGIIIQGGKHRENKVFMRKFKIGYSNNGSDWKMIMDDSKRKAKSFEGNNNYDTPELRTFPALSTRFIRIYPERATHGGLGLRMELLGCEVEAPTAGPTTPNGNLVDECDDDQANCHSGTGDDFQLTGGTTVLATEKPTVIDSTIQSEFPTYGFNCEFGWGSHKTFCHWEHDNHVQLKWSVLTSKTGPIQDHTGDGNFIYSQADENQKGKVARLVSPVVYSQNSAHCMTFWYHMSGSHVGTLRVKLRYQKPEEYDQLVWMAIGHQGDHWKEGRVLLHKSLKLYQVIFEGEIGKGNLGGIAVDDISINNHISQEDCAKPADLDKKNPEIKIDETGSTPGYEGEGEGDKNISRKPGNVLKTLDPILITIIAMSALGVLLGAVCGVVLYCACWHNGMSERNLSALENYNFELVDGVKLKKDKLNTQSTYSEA
Procedure: Porcine aortic endothelial cells expressing neuropilin-1 (PAE/NP-1) were cultured in Ham's F12 medium containing 10% fetal bovine serum (FBS) and 25 μg/ml hygromycin B. PAE cells expressing KDR (PAE/KDR) were grown in Ham's F12 medium containing 10% FBS and 250 μg/ml […] G418. Human carcinoma cell lines (DU145, A549 and ACHN) were grown in RPMI 1640 medium containing 10% FBS and L-glutamine.
Confluent cells in 24-well plates were washed twice with phosphate-buffered saline (PBS). At 4° C. various concentrations of peptides or peptidomimetics diluted in binding medium (Dulbecco's modified Eagle's medium, 25 mM HEPES pH 7.3 containing 0.1% BSA) were added, followed by addition of 0.1 nM of ^125I-VEGF-A165 (1200-1800 Ci/mmol, GE Healthcare). After 2 h of incubation at 4° C., the medium was aspirated and washed 4 times with cold PBS. The cells were lysed with 0.25 M NaOH, 0.5% SDS solution, and the bound radioactivity of the lysates was measured in a γ counter. Non-specific binding was determined in the presence of 100-fold excess unlabelled VEGF-A165.

A549 cells = test: Cell viability (XTT); type: cell-based, Human; settings: concentration of 100 μM
Procedure: Human carcinoma cell lines (DU145, A549 and ACHN) were grown in RPMI 1640 medium containing 10% FBS and L-glutamine. Cell Viability Cell viability was determined by measurement of conversion of the tetrazolium salt XTT to form formazon dye. Carcinoma cells were seeded at a density of 4×10^3 cells per well in 96-well plates in the absence or presence of NP-1 peptide or peptidomimetic antagonists. After 44 h incubation, XTT labelling reagent mixture (Roche) was added to the cultures and they were incubated for a further 4 h. The formazon production was then measured at A490 nm with a reference wavelength at 595 nm.

Question: N=C(N)NCCC[C@H](NC(=O)c1sccc1NS(=O)(=O)c1cccc2nsnc12)C(=O)O [EG00229, (S)-2-{[3-(Benzo[1,2,5]thiadiazole-4-sulfonylamino)-thiophene-2-carbonyl]-amino}-5-guanidino-pentanoic acid] was tested. Which pIC50 (neuropilin-1 (NP-1)) did it give?
Answer: Its pIC50 is over 4.70.

Question: And the “viability of A549 cells” value (A549 cells)?
Answer: Its value is “reduced the viability”.
